Values after ≈ are worked out from the molar mass of the structure shown.
Assays:
[1] = system: E. coli K12 strain MG1655 stationary phase cells; assay: Potentiation assays on stationary phase cultures (metabolites / oxygen plus antibiotic, CFU/mL); assay type: cell-based, Escherichia coli; conditions: for killing of stationary phase E. coli with glucose-fumarate supplementation: different antibiotic concentrations
[2] = system: M. smegmatis strain mc^2 155; assay: Potentiation assay, glucose-fumarate sensitization of stationary phase culture; assay type: cell-based, Mycobacterium smegmatis; conditions: aerated stationary phase; 0.4% fumarate and/or 0.4% glucose
[3] = system: E. coli K12 strain MG1655; assay type: cell-based, Escherichia coli
Method: At each time point, cells were also serially diluted in PBS and plated on LB agar plates to determine the CFU/mL at the time of treatment. Time points were taken until cells reached maximum carrying capacity. After 24 hours of treatment, 100 μl of cells from each tube was spun down and re-suspended in PBS on a 96-well plate. Cells were then serially diluted and plated on LB agar plates. The CFU/mL at treatment was normalized by the CFU/mL of stationary phase cells (% max CFU/ml).
An overnight culture of E. coli was diluted 1/10, 1/100, 1/1000, and 1/10000 in non-baffled flasks. […] Cells were spun down and re-suspended in PBS, diluted and plated on LB agar plates to determine CFU/ml.

[4] = system: M. smegmatis; assay: Minimum inhibitory concentration (MIC); assay type: cell-based, Mycobacterium smegmatis; conditions: Mycolicibacterium smegmatis
[5] = system: S. aureus; conditions: exponentially growing cultures (1% maximal density)
[6] = system: M. smegmatis; conditions: exponentially growing cultures (1% maximal density)
[7] = MOPS rich media, shaking, 1 μg/mL ciprofloxacin

C[S+](C)[O-] [DMSO]
sensitization of stationary phase cultures to ciprofloxacin by the supplement alone [1, 7]: none of these electron acceptors alone was able to sensitize cells

O=C(O)/C=C/C(=O)O [fumarate]
sensitization of stationary phase cultures to ciprofloxacin by the supplement alone [1, 7]: none of these electron acceptors alone was able to sensitize cells
sensitization of high-density cultures to ciprofloxacin by electron acceptor in combination with glucose ([1]; MOPS rich media, shaking, 1 μg/mL ciprofloxacin, with glucose): synergistically sensitized
sensitization of stationary phase cultures to ciprofloxacin [2]: weakly

O=[N+]([O-])[O-].[K+] [nitrate, potassium nitrate]
sensitization of stationary phase cultures to ciprofloxacin by the supplement alone [1, 7]: none of these electron acceptors alone was able to sensitize cells

O=O [oxygen]
susceptibility of stationary phase E. coli to ciprofloxacin with supplementation ([1]; static stationary phase culture, 0.4% glucose, bubbled air, oxygen tension 5-6%, 1 μg/mL ciprofloxacin): minimal effect

CC1(C)S[C@@H]2[C@H](NC(=O)[C@H](N)c3ccccc3)C(=O)N2[C@H]1C(=O)O [ampicillin]
killing of stationary phase E. coli with glucose-fumarate supplementation [1]: did not kill stationary phase cells

O=C(O)c1cn(C2CC2)c2cc(N3CCNCC3)c(F)cc2c1=O [ciprofloxacin]
killing at 1 μg/mL (100xMIC) ([3]; 1 μg/mL ciprofloxacin, low and intermediate cell density): maximal killing at low cell density
ability to kill the high-density cell population (DDP) ([3]; dose 1000x the MIC, treatment time 24 hours): inability of ciprofloxacin to kill a fraction of the cell population
reduction in persister cells of ΔrelAspoT mutant compared to wildtype ([3]; stationary phase, 1 μg/mL ciprofloxacin, ppGpp0 strain): 5.5 fold
susceptibility of quinolone hypersensitive mutant recB ([3]; ΔrecB mutant, stationary phase): hypersensitive in stationary phase
MIC [4]: 0.5 µg/mL (≈ 1.51 µM)
number of viable cells at higher doses [5]: below the limit of detection
number of viable cells at higher doses [6]: below the limit of detection

gentamicin
killing of stationary phase E. coli with glucose-fumarate supplementation [1]: sensitized

From US10842874B2, “Sensitization of bacterial cells to quinolone antibiotics” (Massachusetts Institute of Technology, priority 2017, dated 2020)
